78 molecules from the Kinase Knowledgebase extract (Sharma et al. 2016) can be followed below.

Sequence of PIK3CA (human) (P42336 whole entry, looked up): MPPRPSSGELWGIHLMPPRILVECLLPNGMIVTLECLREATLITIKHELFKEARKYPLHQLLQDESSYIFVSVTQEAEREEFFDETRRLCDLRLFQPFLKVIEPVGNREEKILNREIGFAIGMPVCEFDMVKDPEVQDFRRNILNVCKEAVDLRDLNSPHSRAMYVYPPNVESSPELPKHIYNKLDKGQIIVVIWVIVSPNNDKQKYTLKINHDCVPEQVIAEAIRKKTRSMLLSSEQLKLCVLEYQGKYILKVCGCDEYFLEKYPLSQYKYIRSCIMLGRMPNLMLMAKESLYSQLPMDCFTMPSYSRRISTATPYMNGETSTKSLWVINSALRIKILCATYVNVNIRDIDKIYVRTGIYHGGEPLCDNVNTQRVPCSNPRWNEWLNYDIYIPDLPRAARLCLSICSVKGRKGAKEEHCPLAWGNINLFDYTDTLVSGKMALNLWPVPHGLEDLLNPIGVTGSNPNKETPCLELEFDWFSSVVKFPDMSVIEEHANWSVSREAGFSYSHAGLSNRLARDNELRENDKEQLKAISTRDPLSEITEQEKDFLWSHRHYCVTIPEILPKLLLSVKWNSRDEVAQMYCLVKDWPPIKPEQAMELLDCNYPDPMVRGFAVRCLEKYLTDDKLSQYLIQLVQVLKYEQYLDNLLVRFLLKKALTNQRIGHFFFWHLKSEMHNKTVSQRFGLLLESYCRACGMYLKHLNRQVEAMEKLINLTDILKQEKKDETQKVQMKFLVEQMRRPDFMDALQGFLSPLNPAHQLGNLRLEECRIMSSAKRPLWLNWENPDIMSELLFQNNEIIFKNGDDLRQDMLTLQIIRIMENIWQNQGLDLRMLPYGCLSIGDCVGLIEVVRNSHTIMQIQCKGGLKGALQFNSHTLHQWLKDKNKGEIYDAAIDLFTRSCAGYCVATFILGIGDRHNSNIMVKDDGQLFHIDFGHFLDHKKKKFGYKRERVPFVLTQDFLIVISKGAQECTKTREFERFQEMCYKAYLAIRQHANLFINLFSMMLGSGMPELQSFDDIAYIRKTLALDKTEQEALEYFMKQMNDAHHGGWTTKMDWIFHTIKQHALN

This assay addresses PIK3CA (human) (UniProt P42336). As to the kind of experiment: Inhibition of PIK3CA Kinase Activity.
As for `Cc1nc2ncc(-c3ccc4c(c3)CN(c3nc(CNS(C)(=O)=O)nc5c3CC(C)(C)CC5)CCO4)cc2[nH]1`, the IC50 (commonly the concentration that gives 50% inhibition) is at most 10 nM.
Next, `Cc1nc2ncc(-c3ccc4c(c3)CN(c3nc(CNC5CCC5)nc5c3CC(C)(C)CC5)CCO4)cc2[nH]1`: 10 to 50 nM; `Cc1nc2ccc(-c3ccc4c(c3)CN(c3nc(C(C)(C)O)nc5c3CC(C)(C)CC5)CCO4)cc2[nH]1`: 50 to 250 nM.
The figure for `Cn1ccc2cc(-c3ccc4c(c3)CN(c3ccnc5ccccc35)CCO4)cnc21` is 250 to 1000 nM; for `COCc1nc2ccc(-c3ccc4c(c3)CN(c3ccnc5ccccc35)CCO4)cc2[nH]1` it is 250 to 1000 nM.
Next, `Cc1cc(Br)c2ncnc(N3CCOc4ccc(-c5ccc6nc(C)[nH]c6c5)cc4C3)c2c1`: 50 to 250 nM.
Take `Cc1nc(C)c(CC2CC2)c(N2CCOc3ccc(-c4cnc5nc(C6CC6)[nH]c5c4)cc3C2)n1`: the IC50 lay within 10 to 50 nM.
Regarding `COc1c(O)ccc2c(N3CCOc4ccc(-c5ccc6nc(C)[nH]c6c5)cc4C3)ncnc12`, the IC50 is 10 to 50 nM.
The figure for `CC1(C)CCc2ncnc(N3CCOc4ccc(-c5ccc6nc(N)[nH]c6c5)cc4C3)c2C1` is 50 to 250 nM.
The figure for `CC1(C)CCc2ncnc(N3CCOc4ccc(-c5cnc(N)c(S(=O)(=O)NC6CNC6)c5)cc4C3)c2C1` is 10 to 50 nM; for `COCCOc1ccc2ncnc(N3CCOc4ccc(-c5ccc6nc(C)[nH]c6c5)cc4C3)c2c1` it is 250 to 1000 nM; for `CC[C@H]1CCc2c(ncnc2N2CCOc3ccc(-c4cnc5nc(N)[nH]c5c4)cc3C2)C1` it is at most 10 nM.
Next, `CN(C)Cc1nc2c(c(N3CCOc4ccc(-c5cnc6nc(C7CC7)[nH]c6c5)cc4C3)n1)CC(C)(C)CC2`: at most 10 nM.
`Cc1ncnc(N2CCOc3ccc(-c4ccc5nc(N)ncc5c4)cc3C2)c1Cc1ccc(F)cc1` displayed an IC50 of 250 to 1000 nM.
Next, `Cc1nc2ccc(-c3ccc4c(c3)CN(c3nc(CO)nc(C)c3C(C)C)CCO4)cc2[nH]1`: 10 to 50 nM.
The figure for `c1ccc2c(N3CCOc4ccc(-c5ccc6nccnc6c5)cc4C3)ccnc2c1` is 50 to 250 nM; for `COc1ccc2c(N3CCOc4ccc(-c5ccc6nc(C)[nH]c6c5)cc4C3)ncnc2c1` it is at most 10 nM.
Next, `CN1CCC[C@H](CNS(=O)(=O)c2cc(-c3ccc4c(c3)CN(c3ncnc5c3CC(C)(C)CC5)CCO4)cnc2N)C1`: 50 to 250 nM; `Nc1nc2ccc(-c3ccc4c(c3)CN(c3ccnc5ccccc35)CCO4)cc2[nH]1`: 10 to 50 nM.
Consider `COc1ccc(-c2ccc3c(c2)CN(c2nc(CN(C)C)nc4c2CC(C)(C)CC4)CCO3)cc1OC`, for which the IC50 fell in the range of 10 to 50 nM.
The figure for `CNc1ncnc(N2CCOc3ccc(-c4cnc5nc(C)[nH]c5c4)cc3C2)c1C` is 10 to 50 nM.
Next, `CC1(C)CCc2ncnc(N3CCOc4ccc(-c5cnc(N)c(S(=O)(=O)N6CC(O)C6)c5)cc4C3)c2C1`: at most 10 nM; `CCc1nc(CN(C)C)nc(N2CCOc3ccc(-c4cnc5[nH]c(C)nc5c4)cc3C2)c1C`: 10 to 50 nM.
Next, `Cc1nc2c(C)cc(-c3ccc4c(c3)CN(c3ncnc5cccnc35)CCO4)cc2[nH]1`: 50 to 250 nM.
Turning to `COc1ccc2c(N3CCOc4ccc(-c5cnc6nc[nH]c6c5)cc4C3)nc(C)nc2c1`, the IC50 was at most 10 nM.
The figure for `COc1ccc2ncnc(N3CCOc4ccc(-c5ccc6nc(C)[nH]c6c5)cc4C3)c2c1` is 50 to 250 nM.
The figure for `CCc1nc2cc(-c3ccc4c(c3)CN(c3ncnc5c3CC(C)(C)CC5)CCO4)cnc2[nH]1` is 10 to 50 nM; for `Cc1nc2ncc(-c3ccc4c(c3)CN(c3nc(CNC(C)(C)C)nc5c3CC(C)(C)CC5)CCO4)cc2[nH]1` it is 10 to 50 nM; for `CCC(N)CNS(=O)(=O)c1cc(-c2ccc3c(c2)CN(c2ncnc4c2CC(C)(C)CC4)CCO3)cnc1N` (stereo not drawn) it is 10 to 50 nM.
Next, `Cc1nc2ccc(-c3ccc4c(c3)CN(c3ncnc5c3CCN(Cc3ccccc3)C5)CCO4)cc2[nH]1`: 250 to 1000 nM.
`COc1ccc2c(N3CCOc4ccc(-c5cnc6nc(N)[nH]c6c5)cc4C3)nc(C)nc2c1` came in with an IC50 of at most 10 nM.
The figure for `Cc1cccc(Cl)c1S(=O)(=O)Nc1cc(-c2ccc3c(c2)CN(c2ncnc4c2CC(C)(C)CC4)CCO3)cnc1Cl` is 50 to 250 nM; for `COc1cc2nccc(N3CCOc4ccc(-c5cnc6nc(N)[nH]c6c5)cc4C3)c2cc1OC` it is at most 10 nM; for `Cc1nc2ccc(-c3ccc4c(c3)CN(c3ccnc(Nc5ccccc5)n3)CCO4)cc2[nH]1` it is 250 to 1000 nM.
The figure for `CCNc1ncnc(N2CCOc3ccc(-c4cnc5nc(C)[nH]c5c4)cc3C2)c1C` is 10 to 50 nM; for `Cc1ncnc(N2CCOc3ccc(-c4ccc5sc(N)nc5c4)cc3C2)c1Cc1ccc(F)cc1` it is 50 to 250 nM; for `CN(C)Cc1nc2c(c(N3CCOc4ccc(-c5ccc6[nH]c(CF)nc6c5)cc4C3)n1)CC(C)(C)CC2` it is at most 10 nM.
Next, `CC1(C)CCc2ncnc(N3CCOc4ccc(-c5cnc(N)c(S(=O)(=O)N6CCC(O)CC6)c5)cc4C3)c2C1`: 50 to 250 nM; `Cc1nc2ccc(-c3ccc4c(c3)CN(c3ccnc5ccccc35)CCO4)cc2[nH]1`: 10 to 50 nM.
Molecule `CCNc1nc(N2CCOc3ccc(-c4ccc5nc(NCC)[nH]c5c4)cc3C2)c2ccccc2n1` returned an IC50 of 50 to 250 nM.
Next, `Cc1nc2ncc(-c3ccc4c(c3)CN(c3ncnc5c3CCC(C)(c3ccccc3)C5)CCO4)cc2[nH]1` (stereo not drawn): 10 to 50 nM.
Next, `Nc1nc2ncc(-c3ccc4c(c3)CN(c3ncnc5cc(Cl)c(Br)cc35)CCO4)cc2[nH]1`: at most 10 nM; `Cc1nc2ccc(-c3ccc4c(c3)CN(c3ncnc(C)c3C(C)c3ccccc3)CCO4)cc2[nH]1` (stereo not drawn): 10 to 50 nM; `CC1(C)CCc2ncnc(N3CCOc4ccc(-c5cnc(N)c(S(=O)(=O)N6C[C@H]7C[C@@H]6CN7)c5)cc4C3)c2C1`: 50 to 250 nM.
The figure for `Cc1ncnc(N2CCOc3ccc(-c4ccc5nc(N)cn5c4)cc3C2)c1Cc1ccc(F)cc1` is 10 to 50 nM; for `COc1c(Br)ccc2c(N3CCOc4ccc(-c5ccc6nc(C)[nH]c6c5)cc4C3)ncnc12` it is 10 to 50 nM.
As to `COCc1nc2c(c(N3CCOc4ccc(-c5cnc6[nH]c(C)nc6c5)cc4C3)n1)CC(C)(C)CC2`, the IC50 was 10 to 50 nM.
The figure for `CCNc1nc2ccc(-c3ccc4c(c3)CN(c3ncnc5cc(F)ccc35)CCO4)cc2[nH]1` is at most 10 nM; for `CN(C)Cc1nc2c(c(N3CCOc4ccc(-c5ccc(-c6ncc[nH]6)cc5)cc4C3)n1)CC(C)(C)CC2` it is at most 10 nM.
Next, `Cc1nc2ncc(-c3ccc4c(c3)CN(c3ncnc(C)c3CC3CC3)CCO4)cc2[nH]1`: 50 to 250 nM; `Cc1nc2cc(-c3ccc4c(c3)CN(c3nc(CN(C)C)nc(C)c3C(C)C)CCO4)cnc2[nH]1`: at most 10 nM; `CCC1CCc2ncnc(N3CCOc4ccc(-c5cnc6nc(C)[nH]c6c5)cc4C3)c2C1` (stereo not drawn): 10 to 50 nM.
`CCNc1nc2ncc(-c3ccc4c(c3)CN(c3nc(C)nc5cc(OC)ccc35)CCO4)cc2[nH]1`: the IC50 is at most 10 nM.
The figure for `C[C@H]1CCc2c(ncnc2N2CCOc3ccc(-c4cnc5nc(C6CC6)[nH]c5c4)cc3C2)C1` is 10 to 50 nM; for `COc1cc2nccc(N3CCOc4ccc(-c5ccc(-c6ncc[nH]6)cc5)cc4C3)c2cc1OC` it is 50 to 250 nM.
Turning to `CNC(=O)c1ccc(-c2ccc3c(c2)CN(c2ccnc4ccccc24)CCO3)cc1`, the IC50 fell in the range of 50 to 250 nM.
The figure for `Cc1c(NCC2CCN(C)CC2)ncnc1N1CCOc2ccc(-c3cnc4nc(C5CC5)[nH]c4c3)cc2C1` is 250 to 1000 nM; for `Cc1nc2ccc(-c3ccc4c(c3)CN(c3ncnc5cc(F)c(F)cc35)CCO4)cc2[nH]1` it is 50 to 250 nM; for `C=C[C@H]1CCCc2c(ncnc2N2CCOc3ccc(-c4cnc5nc(C)[nH]c5c4)cc3C2)C1` it is 10 to 50 nM.
The molecule `COc1ccc2c(N3CCOc4ccc(-c5ccc6nc(N)[nH]c6c5)cc4C3)nc(C)nc2c1` displayed an IC50 of at most 10 nM.
Molecule `COc1c(OCc2ccc3ccccc3n2)ccc2c(N3CCOc4ccc(-c5ccc6nc(C)[nH]c6c5)cc4C3)ncnc12` came in with an IC50 of 250 to 1000 nM.
The molecule `Cc1nc2ccc(-c3ccc4c(c3)CN(c3ncnc5cc(Cl)ccc35)CCO4)cc2[nH]1` gave an IC50 of 50 to 250 nM.
On to `Cc1nc2ccc(-c3ccc4c(c3)CN(c3ccnc(C)c3Cc3cccc(F)c3)CCO4)cc2[nH]1`, for which the IC50 was at most 10 nM.
The figure for `CC1(C)CCc2ncnc(N3CCOc4ccc(-c5cnc(N)c(S(=O)(=O)N6C[C@@H]7C[C@H]6CN7)c5)cc4C3)c2C1` is 10 to 50 nM; for `COc1cc2c(N3CCOc4ccc(-c5cnc6nc(N)[nH]c6c5)cc4C3)ncnc2cc1Br` it is 10 to 50 nM; for `CC1(C)CCc2ncnc(N3CCOc4ccc(-c5cnc(N)c(S(=O)(=O)NC[C@@H]6CCCN6)c5)cc4C3)c2C1` it is 50 to 250 nM.
Next, `c1ccc2c(N3CCOc4ccc(-c5ccc6[nH]ncc6c5)cc4C3)ccnc2c1`: 250 to 1000 nM; `COc1ccc2c(N3CCOc4ccc(-c5cnc(N)c(S(=O)(=O)N6CC[C@H](N)C6)c5)cc4C3)ncnc2c1`: at most 10 nM.
Next, `CCNc1nc2ccc(-c3ccc4c(c3)CN(c3nc(CC)nc5cc(OC)ccc35)CCO4)cc2[nH]1`: at most 10 nM.
In turn, `Cc1nc2ccc(-c3ccc4c(c3)CN(c3ncnc5c(C)cccc35)CCO4)cc2[nH]1` had an IC50 of 10 to 50 nM.
The figure for `CN(C)Cc1nc2ncc(-c3ccc4c(c3)CN(c3ncnc5c3CC(C)(C)CC5)CCO4)cc2[nH]1` is 250 to 1000 nM.
The figure for `COc1ccc(-c2ccc3c(c2)CN(c2nc(CN(C)C)nc4c2CC(C)(C)CC4)CCO3)cn1` is 50 to 250 nM.
In the case of `CC(O)CNS(=O)(=O)c1cc(-c2ccc3c(c2)CN(c2ncnc4c2CC(C)(C)CC4)CCO3)cnc1N` (stereo not drawn), the IC50 lay in the range of 10 to 50 nM.
The figure for `COc1ccc2c(N3CCOc4ccc(-c5ccc6[nH]c(C)nc6c5)cc4C3)nc(CN(C)C)nc2c1` is at most 10 nM; for `Cc1ncnc(N2CCOc3ccc(-c4cnc5nc(N)cn5c4)cc3C2)c1Cc1ccc(F)cc1` it is 50 to 250 nM.
The figure for `CC(CO)NS(=O)(=O)c1cc(-c2ccc3c(c2)CN(c2ncnc4c2CC(C)(C)CC4)CCO3)cnc1N` (stereo not drawn) is at most 10 nM; for `CC1(C)CCc2ncnc(N3CCOc4ccc(-c5cnc(N)c(S(=O)(=O)NC[C@@H]6CCNC6)c5)cc4C3)c2C1` it is 10 to 50 nM; for `Cc1c(N2CCOc3ccc(-c4cnc5nc(C6CC6)[nH]c5c4)cc3C2)ncnc1N(C)[C@@H](C)c1ccccc1` it is 250 to 1000 nM.
